What was measured:
HeLa = experiment: Antioxidant activity in human HeLa cells assessed as reduction in iron-reactive oxidative stress preincubated for 4 hrs prior to FeSO4 addition measured after 1 hr by TBARS assay; assay type: functional; parameters: scale not given: the % may be the effect or the level left
Platelet [1] = experiment: Inhibition of collagen-induced platelet aggregation in human whole blood preincubated for 10 mins prior to collagen addition measured after 10 mins by aggregometric analysis; assay type: functional, tissue-based
[2] = Cytotoxicity against human Caco2/TC7 cells assessed as growth inhibition after 24 hrs by WST-1 assay; assay type: functional, cell-based; conditions: Caco-2, 24 h
Rattus norvegicus [3] = experiment: Inhibition of collagen-induced platelet aggregation in po dosed Wistar rat administered for 7 days measured after 1 hr post last dose by aggregometric analysis; assay type: functional; conditions: read-out: ID50 (the source's name)
Rattus norvegicus [4] = experiment: Induction of NO production in Wistar rat at 1 to 100 mg/kg, po qd administered for 7 days measured after 1 hr post last dose by enzyme immuno assay; assay type: functional
Rattus norvegicus [5] = experiment: Inhibition of A23187-induced TXA2 synthesis in Wistar rat at 1 to 100 mg/kg, po qd administered for 7 days measured after 1 hr post last dose by enzyme immunoassay; assay type: functional
[6] = Cytotoxicity against human Caco2/TC7 cells assessed as growth inhibition at 5 uM after 24 hrs by WST-1 assay; assay type: functional; conditions: Caco-2, 24 h, read-out: GI
[7] = Selectivity ratio of IC50 for human MRC5 cells to IC50 for human A549 cells; assay type: ADME, cell-based; conditions: MRC5 cells versus A549 cells, read-out: Ratio IC50
MRC5 = experiment: Cytotoxicity against human MRC5 cells assessed as cell viability after 48 hrs by MTT assay; assay type: cell-based; conditions: MRC5, 48 h
A549 = experiment: Cytotoxicity against human A549 cells assessed as cell viability after 48 hrs by MTT assay; assay type: functional, cell-based; conditions: A549, 48 h
THP-1 [8] = experiment: Inhibition of LPS-induced TNFalpha production in human THP1 cells at 0.5 uM after 3 hrs by microplate reader analysis; assay type: functional; conditions: THP-1, 3 h
THP-1 [9] = experiment: Inhibition of LPS-induced TNFalpha production in human THP1 cells at 10 uM after 3 hrs by microplate reader analysis; assay type: functional; conditions: THP-1, 3 h
THP-1 [10] = experiment: Inhibition of LPS-induced TNFalpha production in human THP1 cells at 100 uM after 3 hrs by microplate reader analysis; assay type: functional; conditions: THP-1, 3 h
Rattus norvegicus [11] = experiment: Inhibition of A23187-induced TXA2 synthesis in Wistar rat at 20 mg/kg, po qd administered for 7 days measured after 1 hr post last dose by enzyme immuno assay; assay type: functional
Rattus norvegicus [12] = experiment: Inhibition of collagen-induced platelet aggregation in Wistar rat at 20 mg/kg, po qd administered for 7 days measured after 1 hr post last dose by aggregometric analysis; assay type: functional
Rattus norvegicus [13] = experiment: Inhibition of plasma lipid peroxide in Wistar rat at 20 mg/kg, po qd administered for 7 days measured after 1 hr post last dose by spectrophotometric analysis; assay type: functional
Rattus norvegicus [14] = experiment: Induction of NO production in Wistar rat at 1 to 10 mg/kg, po qd administered for 7 days measured after 1 hr post last dose by enzyme immuno assay; assay type: functional
Platelet [15] = experiment: Inhibition of ADP-induced platelet aggregation in human platelet rich plasma preincubated for 10 mins; assay type: functional, cell-free
Platelet [16] = experiment: Inhibition of collagen-induced platelet aggregation in human platelet rich plasma preincubated for 10 mins; assay type: functional, cell-free

Question: Which Activity (HeLa) does the source give for `CCCCCCCC/C=C\CCCCCCCC(=O)OCCc1ccc(O)c(O)c1` here?
Answer: 38%

Question: With `CC(=O)OCCc1ccc(O)c(O)c1` as the compound, how does the IC50 (Platelet [1]) read?
Answer: 10 µM

Question: And the IC50 [2]?
Answer: 32 µM

Question: What about the ED50 (Rattus norvegicus [3]) of the same compound?
Answer: 16.1 mg/kg/day

Question: What about the “inhibition (INH)” value (Rattus norvegicus [4]) of the same compound?
Answer: 66%

Question: What about the Activity (HeLa) of the same compound?
Answer: 36%

Question: What about the “inhibition (INH)” value (Rattus norvegicus [5]) of the same compound?
Answer: 37%

Question: And the inhibition of growth at 5 µM [6]?
Answer: 20%

Question: Which results are given for `CCCCCCCCCCCCOCCc1ccc(O)c(O)c1`?
Answer: selectivity ratio [7]: 2.46; IC50 (MRC5): 49 µM; IC50 (A549): 20 µM

Question: Which inhibition at 0.5 µM (THP-1 [8]) does the source give for `Oc1cc2c(cc1O)C(c1ccccc1)OCC2` (stereo not given) here?
Answer: 30%

Question: What about the inhibition at 10 µM (THP-1 [9]) of the same compound?
Answer: 60%

Question: What about the inhibition at 100 µM (THP-1 [10]) of the same compound?
Answer: 80%

Question: What does the source list for `CCCCCCOCCc1ccc(O)c(O)c1`?
Answer: inhibition in vivo at 20 mg/kg (Rattus norvegicus [11]): 58.7%; inhibition in vivo at 20 mg/kg (Rattus norvegicus [12]): 58.7%; IC50 (Platelet [1]): 0.1 µM; inhibition in vivo at 20 mg/kg (Rattus norvegicus [13]): 84.7%

Question: Which “inhibition (INH)” value (Rattus norvegicus [14]) does the source give for `CC(=O)Oc1ccccc1C(=O)O` [ASPIRIN] here?
Answer: 64%

Question: What about the ED50 (Rattus norvegicus [3]) of the same compound?
Answer: 2.42 mg/kg/day

Question: For `OCCc1ccc(O)c(O)c1` [HYDROXYTYROSOL], which IC50 (Platelet [15]) is on record?
Answer: 27 µM

Question: And the IC50 (Platelet [16])?
Answer: 67 µM

Question: And the ED50 (Rattus norvegicus [3])?
Answer: 48.2 mg/kg/day

Question: What about the “inhibition (INH)” value (Rattus norvegicus [4]) of the same compound?
Answer: 34.2%

Question: And the “inhibition (INH)” value (Rattus norvegicus [5])?
Answer: 30%

From ChEMBL document CHEMBL3739422, “Hydroxytyrosol-Derived Compounds: A Basis for the Creation of New Pharmacological Agents for Cancer Prevention and Therapy” (J Med Chem, 2015)
